Test results published in patent publication US11203591B2, “Substituted 6-azabenzimidazole compounds” (Gilead Sciences, Inc., priority 2018, dated 2021).

Molecular target: human HPK1 (MAP4K1) (Homo sapiens (Human), UniProt Q92918)
Assay: HPK1 IC50 Assay (TR-FRET peptide phosphorylation)
Format: biochemical
Details: 0.15 nM HPK1, 10 μM ATP, 1 μM STK S1 peptide substrate; geometric mean
Method in brief: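 Readout: TR-FRET (665 nm/620 nm) after EDTA stop, detecting STK S1 peptide (1 μM) phosphorylation by 0.15 nM HPK1 kinase domain, ATP-pre-activated, at 10 μM ATP over 3 h, 25° C, pH 7.0. IC50s from four-parameter variable-slope fits, normalized to staurosporine and DMSO, averaged geometrically.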

Sequence of human HPK1 (MAP4K1) (Q92918 17-274): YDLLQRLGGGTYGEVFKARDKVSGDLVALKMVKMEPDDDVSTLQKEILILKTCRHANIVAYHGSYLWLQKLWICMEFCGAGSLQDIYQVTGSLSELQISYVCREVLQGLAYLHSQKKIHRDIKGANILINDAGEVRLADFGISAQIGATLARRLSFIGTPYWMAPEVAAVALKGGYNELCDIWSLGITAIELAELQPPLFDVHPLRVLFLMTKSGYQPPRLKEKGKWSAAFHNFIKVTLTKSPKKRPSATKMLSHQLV

IC50 | Structure (SMILES)
0.1 nM | CCNC(=O)c1cc(Nc2nc(-c3cc4c(nc3F)C(C)(C)C(=O)N4[C@H]3C[C@@](C)(N4CCCC5(CC5)C4)C3)cc3ncn(C(C)C)c23)c(F)c(F)c1Cl [Example 270, 2-chloro-N-ethyl-3,4-difluoro-5-((6-(5-fluoro-3,3-dimethyl-1-((1s,3s)-3-methyl-3-(5-azaspiro[2.5]octan-5-yl)cyclobutyl)-2-oxo-2,3-dihydro-1H-pyrrolo[3,2-b]pyridin-6-yl)-3-isopropyl-3H-imidazo[4,5-c]pyridin-4-yl)amino)benzamide]
0.07 nM | Cc1c(C(=O)NCC(F)F)cc(Nc2nc(-c3cc4c(nc3F)C(C)(C)C(=O)N4[C@H]3C[C@@](C)(N4CCCCC4)C3)cc3ncn(C(C)C)c23)c(F)c1F [Example 269, N-(2,2-difluoroethyl)-3,4-difluoro-5-((6-(5-fluoro-3,3-dimethyl-1-((1s,3s)-3-methyl-3-(piperidin-1-yl)cyclobutyl)-2-oxo-2,3-dihydro-1H-pyrrolo[3,2-b]pyridin-6-yl)-3-isopropyl-3H-imidazo[4,5-c]pyridin-4-yl)amino)-2-methylbenzamide]

Same assay, conditions: recombinant HPK1 kinase domain 0.15 nM, 10 μM ATP, 1 μM STK S1 peptide; geometric mean of multiple experiments

Structure (SMILES) | IC50
CC(C)n1cnc2cc(-c3cnc4c(c3)N([C@H]3C[C@@](C)(N5CCC6CC6C5)C3)C(=O)C4(C)C)nc(Nc3cc(C(=O)NC4(CF)CC4)c(Cl)c(F)c3F)c21 (stereo partly shown) [Example 227, 5-((6-(1-((1s,3s)-3-(3-Azabicyclo[4.1.0]heptan-3-yl)-3-methylcyclobutyl)-3,3-dimethyl-2-oxo-2,3-dihydro-1H-pyrrolo[3,2-b]pyridin-6-yl)-3-isopropyl-3H-imidazo[4,5-c]pyridin-4-yl)amino)-2-chloro-3,4-difluoro-N-(1-(fluoromethyl)cyclopropyl)benzamide] | 0.1 nM
CNC(=O)c1cc(Nc2nc(-c3ccc4c(c3)N([C@H]3C[C@@H](N5CCCCC5)C3)C(=O)C43CCN(C(C)=O)CC3)cc3ncn(C4CC4)c23)cc(C)c1C [Example 96] | 0.2 nM
CC(C)n1cnc2cc(-c3cnc4c(c3)N([C@H]3C[C@@](C)(N5CCC6CC6C5)C3)C(=O)C4(C)C)nc(Nc3cc(C(=O)NC4(CF)CC4)c(Cl)c(F)c3F)c21 (mixture of isomers) [Example 257, 5-((6-(1-((1s,3s)-3-(3-azabicyclo[4.1.0]heptan-3-yl)-3-methylcyclobutyl)-3,3-dimethyl-2-oxo-2,3-dihydro-1H-pyrrolo[3,2-b]pyridin-6-yl)-3-isopropyl-3H-imidazo[4,5-c]pyridin-4-yl)amino)-2-chloro-3,4-difluoro-N-(1-(fluoromethyl)cyclopropyl)benzamide] | 0.1 nM
CNC(=O)c1cc(Nc2nc(-c3ccc4c(c3)N([C@H]3C[C@@H](N5CC(C)(C)CC(C)(C)C5)C3)C(=O)C43CCN(C(C)=O)CC3)cc3ncn(C4CC4)c23)ccc1C [Example 160] | 0.08 nM
CNC(=O)c1cc(Nc2nc(-c3ccc4c(c3)N([C@H]3C[C@@H](N5C6COCC5C6)C3)C(=O)C4(C)C)cc3ncn(C(C)C)c23)c(F)cc1C [Example 9] | 0.1 nM
Cc1ccc(Nc2nc(-c3ccc4c(c3)N([C@H]3C[C@@H](N5CCCCC5)C3)C(=O)C4(F)F)cc3ncn(C4CC4)c23)cc1C(N)=O [Example 184] | 0.9 nM
CNC(=O)c1cc(Nc2nc(-c3ccc4c(c3)N([C@H]3C[C@@H](N5CCCCC5)C3)C(=O)C43CCN(C(=O)[C@@H](C)O)CC3)cc3ncn(C(C)C)c23)ccc1C [Example 147] | 0.2 nM
CNC(=O)c1cc(Nc2nc(-c3ccc4c(c3)N([C@H]3C[C@@H](N5CC6C(C5)C6(F)F)C3)C(=O)C43CCN(C4COC4)CC3)cc3ncn(C(C)C)c23)c(F)cc1C (stereo partly shown) [Example 70] | 0.7 nM
Cc1cc(F)c(Nc2nc(-c3ccc4c(c3)N([C@H]3C[C@@H](N5C[C@H]6CC[C@@H]5C6)C3)C(=O)C4(C)C)cc3ncn(C(C)C)c23)cc1C(=O)NC1(C(F)F)CC1 [Example 66] | 0.09 nM
CNC(=O)c1cc(Nc2nc(-c3ccc4c(c3)N([C@H]3C[C@@H](NC(C)C)C3)C(=O)C4(C)C)cc3ncn(C(C)C)c23)ccc1C [Example 11] | 0.1 nM
CNC(=O)c1cc(Nc2nc(-c3ccc4c(c3)N(C3CC(N5CCC[C@H](C(F)F)C5)C3)C(=O)C4(C)C)cc3ncn(C(C)C)c23)ccc1C (stereo partly shown) [Example 105B, 5-((6-(1-((1s,3s)-3-(3-(difluoromethyl)piperidin-1-yl)cyclobutyl)-3,3-dimethyl-2-oxoindolin-6-yl)-3-isopropyl-3H-imidazo[4,5-c]pyridin-4-yl)amino)-N,2-dimethylbenzamide] | 0.09 nM

Further lines, results first:

IC50 | Structure (SMILES)
0.07 nM | Cc1c(C(=O)NC2(C(F)F)CC2)cc(Nc2nc(-c3ccc4c(c3)N([C@H]3C[C@@H](N5C[C@H]6CC[C@@H]5C6)C3)C(=O)C4(C)C)cc3ncn(C(C)C)c23)c(F)c1F [Example 145, 5-((6-(1-((1S,3s)-3-((1R,4S)-2-azabicyclo[2.2.1]heptan-2-yl)cyclobutyl)-3,3-dimethyl-2-oxoindolin-6-yl)-3-isopropyl-3H-imidazo[4,5-c]pyridin-4-yl)amino)-N-(1-(difluoromethyl)cyclopropyl)-3,4-difluoro-2-methylbenzamide]
0.07 nM | CNC(=O)c1cc(Nc2nc(-c3ccc4c(c3)N([C@H]3C[C@@H](N5CCCCC5)C3)C(=O)C4(C)C)cc3ncn(C(C)C)c23)ccc1Cl [Example 119]
0.07 nM | Cc1ccc(Nc2nc(-c3ccc4c(c3)N([C@H]3C[C@@H](N5CCCCC5)C3)C(=O)C4(C)C)cc3ncn(C(C)C)c23)cc1C(=O)NCCC(F)F [Example 25]
0.07 nM | CNC(=O)c1cc(Nc2nc(-c3ccc4c(c3)N([C@H]3C[C@@H](N5CCCCC5)C3)C(=O)C4(C)C)cc3ncn(C(C)C)c23)ccc1C(F)(F)F [Example 141]
0.06 nM | CCc1ccc(Nc2nc(-c3ccc4c(c3)N([C@H]3C[C@@H](N5CCCCC5)C3)C(=O)C4(C)C)cc3ncn(C(C)C)c23)cc1C(=O)NC [Example 143]
0.06 nM | Cc1c(C(=O)NC2(C(F)F)CC2)cc(Nc2nc(-c3cnc4c(c3)N([C@H]3C[C@@](C)(N5CC6CCC5CO6)C3)C(=O)C4(C)C)cc3ncn(C(C)C)c23)c(F)c1F (stereo partly shown) [Example 224, 5-((6-(1-((1s,3s)-3-(2-oxa-5-azabicyclo[2.2.2]octan-5-yl)-3-methylcyclobutyl)-3,3-dimethyl-2-oxo-2,3-dihydro-1H-pyrrolo[3,2-b]pyridin-6-yl)-3-isopropyl-3H-imidazo[4,5-c]pyridin-4-yl)amino)-N-(1-(difluoromethyl)cyclopropyl)-3,4-difluoro-2-methylbenzamide]
0.06 nM | CC(=O)N1CCC2(CC1)C(=O)N([C@H]1C[C@@H](N3CCCCC3)C1)c1cc(-c3cc4ncn(C(C)C)c4c(Nc4ccc(C)c(C(=O)NC5CC5)c4)n3)ccc12 [Example 94]
0.04 nM | CCNC(=O)c1cc(Nc2nc(-c3cnc4c(c3)N([C@H]3C[C@@](C)(N5CCC6CC6C5)C3)C(=O)C4(C)C)cc3ncn(C(C)C)c23)c(F)c(F)c1Cl (stereo partly shown) [Example 251, 5-((6-(1-((1s,3s)-3-(3-azabicyclo[4.1.0]heptan-3-yl)-3-methylcyclobutyl)-3,3-dimethyl-2-oxo-2,3-dihydro-1H-pyrrolo[3,2-b]pyridin-6-yl)-3-isopropyl-3H-imidazo[4,5-c]pyridin-4-yl)amino)-2-chloro-N-ethyl-3,4-difluorobenzamide]
0.04 nM | Cc1ccc(Nc2nc(-c3ccc4c(c3)N([C@H]3C[C@@H](N5CCC[C@@H](F)C5)C3)C(=O)C4(C)C)cc3ncn(C4CC4)c23)cc1C(N)=O [Example 17]
